Data reported in patent US20040208782A1, “Composition and process for chemical and thermal disinfection” (priority 2003, published 2004).
Where “and” joins values, the source holds several entries; their conditions need not be identical. Identical values can stand only once.

How the values were obtained:
[1] = Stoppered cylinder foam test (Test 3); type: physicochemical; details: 0.1% by weight aqueous solution, room temperature
Protocol: The test is used for qualitative assessment of the foaming behaviour of solutions.
The solution to be tested is introduced, avoiding foaming as far as possible, up to the 30 ml mark in a 100 ml measuring cylinder (graduated). It is advisable to hold the cylinder at an angle and allow the solution to run slowly down the wall of the mixing cylinder. The stopper is then inserted.
If foam has nevertheless formed when introducing the solution, the test is not carried out until the foam has completely disappeared. The stoppered cylinder is shaken vigorously 10×, and the stopclock is started. The total volume of solution and foam is then read off in ml after previously specified times.
Test 3 at Room Temperature

Solubility in water = type: physicochemical
[2] = tested on: Mycobacterium terrae (ATCC15755); experiment: Mycobacterium terrae quantitative suspension test (Test 2), reduction factors; type: cell-based; details: for activity for Mycobacterium terrae (in words): 0.1% by weight; for reduction factor: Example 4, 0.1% by weight
[3] = tested on: bacteria, fungi and mycobacteria; experiment: Quantitative suspension test, overall spectrum of activity (result statements); type: cell-based; details: 0.1% by weight

Row | Structure (SMILES) | foaming behaviour (in words) [1] | solubility in water (Solubility in water) | activity for Mycobacterium terrae (in words) ([2]; 50° C.) | activity for Mycobacterium terrae (in words) ([2]; room temperature, only at 60 minutes in 30% by weight ethanol solution) | activity (in words) ([2]; 0.1% strength or 0.05% strength aqueous solution, elevated temperature (e.g. 60° C.)) | reduction factor ([2]; 50° C., action for 15′) | reduction factor ([2]; 50° C., action for 30′) | reduction factor ([2]; 50° C., action for 60′) | activity on Mycobacterium terrae (in words) ([2]; above room temperature, alkaline range) | antimicrobial activity (in words) ([3]; 50° C., gram-positive and gram-negative bacteria, yeasts and mycobacteria) | antimicrobial activity (in words) ([3]; low temperature)
1 | CCCCCCCCOCC(O)CO (stereo not shown) [1-(n-octyl)glycerol ether] | pronounced foaming | < 0.2 % by weight and > 0.1 % by weight | – | – | – | – | – | – | – | – | –
2 | CCCCC(CC)COCC(O)CO (stereo not shown) [SC 50, 1-(2-Ethylhexyl)glycerol ether] | virtually no foam | 0.18 % by weight | active | good activity | excellent activity | 4.80 | 4.66 | 5.52 | excellent activity | broad activity | virtually no antimicrobial activity
